The source of these data is patent US20100130738A1 (priority 2007, published 2010).

The structures appear in SMILES notation.

As usually defined, the melting point is the temperature, or range, at which the solid turns liquid.

Data set [1] relates to LPS acute inflammation model in rats. Nature of the data set: LPS acute inflammation model in rats (total leukocytes in BALF). It counts as in vivo, rat. Conditions: 10 mg/kg orally one hour before LPS inhalation, BALF 3 hours after LPS inhalation. The method, then: 10 mg/kg of the compounds were orally administered to rats one hour before inhalation of a lipopolysaccharide from E. coli serotype 055:B5 (LPS), and the rats were made to inhale 50 ml of the LPS solution nebulized using a nebulizer for 30 minutes. Then, 3 hours after LPS inhalation, the rats were euthanized with 20% urethane (5 ml/rat, i.p.). 5 ml of physiological saline for bronchoalveolar lavage was injected into the bronchial tubes and alveoli through the airway, and the bronchial tubes and alveoli were washed three times using a 5 mL syringe. This operation was repeated twice, and the solution was collected as bronchoalveolar lavage fluid (BALF). The collected BALF was centrifuged at 1200 rpm and 4° C. for 10 minutes (Hirtachi; himac CR 5 DL). The pellet was re-suspended in 10 ml of a 0.1% bovine serum albumin-physiological saline, and an equivalent amount of Turk's solution was added thereto to stain leukocytes. The total number of leukocytes was counted under a microscope to calculate the inhibition rate. Further, the indications were as follows: inhibition rate≧80% (+++), 80%≧inhibition rate≧60% (++), and 60%>inhibition rate≧40% (+).

The target in data set [2] is T1, PDE3A catalytic domain (PDE3Acat) (Homo sapiens, UniProt Q14432).
T1 construct: isolate the cDNA of a PDE3A catalytic domain; made in house; host or cells: Sf9 insect cells (baculovirus, Bac-to-Bac / Gateway)
Nature of the data set: Phosphodiesterase inhibitory activity, recombinant PDE3Acat, [3H]cAMP. It counts as biochemical. Conditions: 30° C. 20 minutes, read-out: IC50 (μmol/L) PDE3.

For another data set, the target named is T2, PDE4Bcat (Homo sapiens, UniProt Q07343).
T2 construct: made in house; host or cells: Sf9 insect cells (baculovirus, Bac-to-Bac / Gateway)
Nature of the data set: Phosphodiesterase inhibitory activity, recombinant PDE4Bcat, [3H]cAMP. The class given is biochemical. Conditions: 30° C. 20 minutes, read-out: IC50 (μmol/L) PDE4.

Data set [3] concerns histamine-induced bronchoconstriction in guinea pigs. Nature of the data set: Histamine-induced bronchoconstriction reaction in guinea pigs. The class given is in vivo, guinea pig. Conditions: Cavia porcellus, iv, 0.5 min, compound 0.3 mg/kg i.v., measured 30 seconds after administration, histamine 12.5 μg/kg i.v., read-out: Inhibition rate (histamine-induced bronchoconstriction). The procedure:
Guinea pigs were anesthetized with pentobarbital (30 mg/kg, i.p.). A cannula for intravenous administration, a cannula for collecting blood and measuring blood pressure, and a tracheal cannula were inserted into the left external jugular vein, right internal carotid artery, and trachea, respectively. The guinea pigs were maintained on artificial respiration under conditions of 60 times/min and 10 mL/kg/stroke. The overflowing air from the side branch of the tracheal cannula was measured by a bronchospasm transducer (Ugo-Basile) and recorded on a computer via Power Lab (ADInstruments Japan). The guinea pigs were immobilized with gallamine (10 mg/kg, i.v.), and histamine (12.5 μg/kg, i.v.) was administered at 10-minute intervals. After the histamine-induced bronchoconstriction became stable, the compound (0.3 mg/kg, i.v.) was administered. The histamine-induced bronchoconstriction reaction was measured 30 seconds after the compound administration to examine the bronchoconstriction inhibitory activity of the compound. The bronchoconstriction was recorded as the airflow value, and the results were represented by the ratio of the maximum value of the histamine-induced airflow 30 seconds after administration to the maximum value of the airflow before administration. Also, the test compounds dissolved in DMSO were used. Further, the indications were as follows: inhibition rate≧90% (+++), 90%>inhibition rate≧80% (++), and 80%>inhibition rate≧60% (+).

T1 sequence (Q14432 674-1093 limits assumed): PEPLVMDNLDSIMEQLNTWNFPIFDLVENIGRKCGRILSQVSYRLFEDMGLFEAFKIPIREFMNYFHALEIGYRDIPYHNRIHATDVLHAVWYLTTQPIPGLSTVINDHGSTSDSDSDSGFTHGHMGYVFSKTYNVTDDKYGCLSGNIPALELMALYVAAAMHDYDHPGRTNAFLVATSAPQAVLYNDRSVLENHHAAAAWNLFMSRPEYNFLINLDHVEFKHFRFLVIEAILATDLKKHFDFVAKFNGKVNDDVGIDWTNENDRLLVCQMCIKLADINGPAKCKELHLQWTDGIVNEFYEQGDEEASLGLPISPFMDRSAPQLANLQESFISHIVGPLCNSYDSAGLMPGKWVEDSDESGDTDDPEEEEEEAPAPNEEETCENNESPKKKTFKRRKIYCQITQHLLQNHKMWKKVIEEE
T2 sequence (Q07343 330-659 limits assumed): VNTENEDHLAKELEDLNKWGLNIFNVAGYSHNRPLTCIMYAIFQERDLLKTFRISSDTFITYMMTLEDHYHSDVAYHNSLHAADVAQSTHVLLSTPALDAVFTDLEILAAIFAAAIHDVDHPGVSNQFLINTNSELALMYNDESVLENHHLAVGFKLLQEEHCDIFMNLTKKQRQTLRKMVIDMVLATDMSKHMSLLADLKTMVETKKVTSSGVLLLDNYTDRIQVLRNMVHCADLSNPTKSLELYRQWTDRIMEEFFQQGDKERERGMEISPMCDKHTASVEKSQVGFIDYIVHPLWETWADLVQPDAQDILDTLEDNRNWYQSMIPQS

On to `CCc1ccc2c(C3=NN(CCCCOc4ccc(C5=NNC(=O)CC5C)cc4F)C(=O)C3(C)C)ccc(OC)c2n1` (single isomer, unassigned; (+)) [Example 206, (+)-5-(2-Ethyl-8-methoxyquinolin-5-yl)-2-[4-[2-fluoro-4-(4-methyl-6-oxo-1,4,5,6-tetrahydropyridazin-3-yl)phenoxy]butyl]-4,4-dimethyl-2,4-dihydro-pyrazol-3-one], for which the “Inhibition rate (total number of leukocytes in BALF)” value (“Inhibition rate” below) in data set [1] is listed as “+ (60%>inhibition rate≧40%)”. Besides, the IC50 in data set [2] is 0.1 to 1 µmol/L; at PDE4Bcat, 0.01 to 0.1 µmol/L.

Turning to `CCc1ccc2c(C3=NN(CCCCOc4ccc(C5=NNC(=O)CC5C)c(F)c4F)C(=O)C3(C)C)ccc(OC)c2n1` (single isomer, unassigned; (+)) [Example 210, (+)-5-(2-Ethyl-8-methoxyquinolin-5-yl)-2-[4-[2,3-difluoro-4-(4-methyl-6-oxo-1,4,5,6-tetrahydropyridazin-3-yl)phenoxy]butyl]-4,4-dimethyl-2,4-dihydro-pyrazol-3-one], in data set [1] (10 mg/kg), the “Inhibition rate” value was “+ (60%>inhibition rate≧40%)”. The IC50 is < 0.01 µmol/L in data set [2] and 0.01 to 0.1 µmol/L on PDE4Bcat.

Take `CCc1ccc2c(C3=NN(CCCCOc4ccc(C5=NNC(=O)CC5C)cc4F)C(=O)C3(C)C)ccc(OC)c2n1` (single isomer, unassigned; (-)) [Example 207, (−)-5-(2-ethyl-8-methoxyquinolin-5-yl)-2-[4-[2-fluoro-4-(4-methyl-6-oxo-1,4,5,6-tetrahydropyridazin-3-yl)phenoxy]butyl]-4,4-dimethyl-2,4-dihydro-pyrazol-3-one]: the “Inhibition rate” value in data set [1] is “+ (60%>inhibition rate≧40%)”. Also, the IC50 in data set [2] is < 0.01 µmol/L; at PDE4Bcat, 0.01 to 0.1 µmol/L. The inhibition in vivo at 0.3 mg/kg in data set [3] was ≥ 90%.

With `CCc1ccc2c(C3=NN(CCCCOc4ccc(C5=NNC(=O)CC5C)c(F)c4F)C(=O)C3(C)C)ccc(OC)c2n1` (single isomer, unassigned; (-)) [Example 211, (−)-5-(2-ethyl-8-methoxyquinolin-5-yl)-2-[4-[2,3-difluoro-4-(4-methyl-6-oxo-1,4,5,6-tetrahydropyridazin-3-yl)phenoxy]butyl]-4,4-dimethyl-2,4-dihydro-pyrazol-3-one], the “Inhibition rate” value in data set [1] (10 mg/kg) is recorded as “++ (80%≧inhibition rate≧60%)”. For the same compound, the IC50 in data set [2] was < 0.01 µmol/L; on PDE4Bcat it was 0.01 to 0.1 µmol/L. The inhibition in vivo at 0.3 mg/kg in data set [3] is ≥ 90%.

With `COc1ccc(C2=NN(CCCCOc3ccc(C4=NNC(=O)C4(C)C)c(F)c3F)C(=O)C2(C)C)c2ccc(C)nc12` [Example 197, 2-[4-[2,3-Difluoro-4-(4,4-dimethyl-5-oxo-4,5-dihydro-1H-pyrazol-3-yl)phenoxy]butyl]-5-(8-methoxy-2-methylquinolin-5-yl)-4,4-dimethyl-2,4-dihydro-pyrazol-3-one], the “Inhibition rate” value in data set [1] is reported as “+++ (inhibition rate≧80%)”. Also, the IC50 in data set [2] was < 0.01 µmol/L; at PDE4Bcat, 0.01 to 0.1 µmol/L. Further, the inhibition in vivo at 0.3 mg/kg in data set [3] was ≥ 90%.

Turning to `CCc1ccc2c(C3=NN(CCCCOc4ccc(C5=NNC(=O)CC5C)cc4F)C(=O)C3(C)C)ccc(OC)c2n1` (centres unmarked) [Example 205, 5-(2-Ethyl-8-methoxyquinolin-5-yl)-2-[4-[2-fluoro-4-(4-methyl-6-oxo-1,4,5,6-tetrahydropyridazin-3-yl)phenoxy]butyl]-4,4-dimethyl-2,4-dihydro-pyrazol-3-one], the “Inhibition rate” value in data set [1] is “+++ (inhibition rate≧80%)”. Further, the IC50 in data set [2] is < 0.01 µmol/L; at PDE4Bcat it was 0.01 to 0.1 µmol/L. The inhibition in vivo at 0.3 mg/kg in data set [3] is ≥ 90%.

On to `CCc1ccc2c(C3=NN(CCCCOc4ccc(C5=NNC(=O)CC5C)c(F)c4F)C(=O)C3(C)C)ccc(OC)c2n1` (centres unmarked) [Example 209, 5-(2-Ethyl-8-methoxyquinolin-5-yl)-2-[4-[2,3-difluoro-4-(4-methyl-6-oxo-1,4,5,6-tetrahydropyridazin-3-yl)phenoxy]butyl]-4,4-dimethyl-2,4-dihydro-pyrazol-3-one], for which the “Inhibition rate” value in data set [1] is recorded as “+++ (inhibition rate≧80%)”. Further, the IC50 in data set [2] was < 0.01 µmol/L; on PDE4Bcat, 0.01 to 0.1 µmol/L. In data set [3], the inhibition in vivo at 0.3 mg/kg was ≥ 90%.

The compound `COc1ccc(C2=NN(CCCCOc3ccc(C4=NNC(=O)CC4)c(F)c3F)C(=O)C2(C)C)c2cc(C(F)(F)F)sc12` [Example 222, 2-[4-[2,3-Difluoro-4-(6-oxo-1,4,5,6-tetrahydropyridazin-3-yl)phenoxy]butyl]-5-(7-methoxy-2-trifluoromethylbenzo[b]thiophen-4-yl)-4,4-dimethyl-2,4-dihydro-pyrazol-3-one] registered a melting point of 176 to 177 °C. Moreover, the IC50 in data set [2] was < 0.01 µmol/L. Further, the IC50 on PDE4Bcat lay within 0.1 to 1 µmol/L.

`COc1ccc(C2=NN(CCCCOc3ccc(C4=NNC(=O)C4(C)C)c(F)c3F)C(=O)C2(C)C)c2cc(C(F)(F)F)sc12` [Example 223, 2-[4-[2,3-Difluoro-4-(4,4-dimethyl-5-oxo-4,5-dihydro-1H-pyrazol-3-yl)phenoxy]butyl]-5-(7-methoxy-2-trifluoromethylbenzo[b]thiophen-4-yl)-4,4-dimethyl-2,4-dihydro-pyrazol-3-one] returned a melting point of 167 to 168 °C. Besides, the IC50 in data set [2] fell in the range of 0.01 to 0.1 µmol/L. For the same compound, the IC50 on PDE4Bcat was 0.01 to 0.1 µmol/L.

In turn, `COc1ccc(C2=NN(CCCCOc3ccc(C4=NNC(=O)CC4C)c(F)c3F)C(=O)C2(C)C)c2cc(C(F)(F)F)sc12` (centres unmarked) [Example 224, 2-[4-[2,3-Difluoro-4-(4-methyl-6-oxo-1,4,5,6-tetrahydropyridazin-3-yl)phenoxy]butyl]-5-(7-methoxy-2-trifluoromethylbenzo[b]thiophen-4-yl)-4,4-dimethyl-2,4-dihydro-pyrazol-3-one] displayed a melting point of 137 to 138 °C. For the same compound, the IC50 in data set [2] is < 0.01 µmol/L. The IC50 on PDE4Bcat is 0.01 to 0.1 µmol/L.
